Counter-ions that a name gives are not always drawn.
Assays:
MDA-MB-231 = experiment: XTT antiproliferative assay, MDA-MB-231; type: cell-based; settings: Homo sapiens, 72 h, mean ± SD
Protocol: (§1) All the synthesized 4-anilinoquinolinylchalcone derivatives were evaluated in vitro against two cancer cells (Huh-7 and MDA-MB-231) and a non-cancer normal fibroblast lung cell line (MRC-5) using an XTT (sodium 3′-[1-(phenylamino-carbonyl)-3,4-tetrazolium}-bis(4-methoxy-6-nitro)benzene sulfonic acid hydrate) assay. The concentration that inhibited the growth of 50% of cells (IC50) was determined from the linear portion of the curve by calculating the concentration of the tested agent that reduced absorbance in treated cells, compared to control cells, by 50%. The IC50 results of these 4-anilinoquinolinylchalcone derivatives are summarized (Table 1). […] Thus, 4a was selected as a lead compound for further mechanism studies.
(§2) Cancer cells (Huh-7, MDA-MB-231) and normal lung cells (MRC-5) were purchased from Bioresources Collection and Research Center, Taiwan. Cells were maintained in the same standard medium, grown as a monolayer in DMEM (Gibco, Miami, FL, USA), and supplemented with 10% fetal bovine serum (FBS) and antibiotics, i.e., 100 IU/mL penicillin, 0.1 mg/mL streptomycin and 0.25 μg/mL amphotericin. The culture was maintained at 37 °C with 5% CO2 in a humidified atmosphere. Cells (5 × 10^3 cells/well) were treated with tested compounds for 72 h in the medium containing 10% FBS. Cell viability was quantitated with the use of sodium 3′-[1-(phenylamino-carbonyl)-3,4-tetrazolium}-bis(4-methoxy-6-nitro)benzene sulfonic acid hydrate (XTT) colorimetric assay (Biological Industries, Beit-Haemek, Israel). XTT labeling reagent (1 mg/mL) was mixed with electron-coupling reagent, following the manufacturer’s instructions, and 50 μL of the mixture was added directly to the cells. The plates were further incubated at 37 °C for 4 h. Color was measured spectrophotometrically in a microtiter plate reader at 492 nm and used as a relative measurement of viable cell numbers. After drug treatment, the viable cell number was compared to the solvent and untreated control cell number. This information was used to determine the percent of control growth as (Abtreated/Abcontrol) × 100, where Ab represents the mean absorbance (n = 3). The concentration that killed 50% of cells (IC50) was determined from the linear portion of the curve by calculating the concentration of the agent that reduced the absorbance in treated cells, compared to control cells, by 50%.

Huh-7 = experiment: XTT antiproliferative assay, Huh-7; type: cell-based; settings: Homo sapiens, 72 h, mean ± SD
Protocol: as §1, §2

MRC-5 = experiment: XTT antiproliferative assay, normal lung cells MRC-5; type: cell-based; settings: Homo sapiens, MRC5, 72 h, mean ± SD
Protocol: as §1, §2

melting point	IC50 (MDA-MB-231)	IC50 (Huh-7)	SMILES	IC50 (MRC-5)
162 to 163 °C			O=C(/C=C/c1cc(Nc2ccc(OCc3ccccc3)cc2)c2ccccc2n1)c1ccc(F)cc1 (as salt: salt) [Compound 5a, (E)-3-{4-{[4-(Benzyloxy)phenyl]amino}quinolin-2-yl}-1-(4-fluorophenyl)prop-2-en-1-one]	
	1590 ± 150 nM	1830 ± 220 nM	COc1ccc(C(=O)/C=C/c2cc(Nc3ccc(OCc4ccccc4Cl)cc3)c3ccccc3n2)cc1 [Compound 4b, (E)-3-{4-{{4-[(2-Chlorobenzyl)oxy]phenyl}amino}quinolin-2-yl}-1-(4-methoxy - phenyl) prop-2-en-1-one]	> 20000 nM
192 to 193 °C			O=C(/C=C/c1cc(Nc2ccc(OCc3ccccc3Cl)cc2)c2ccccc2n1)c1ccc(F)cc1 (as salt: salt) [Compound 5b, (E)-3-{4-{{4-[(2-Chlorobenzyl)oxy]phenyl}amino}quinolin-2-yl}-1-(4-fluorophenyl) prop-2-en-1-one]	
	1760 ± 130 nM	1280 ± 210 nM	O=C(/C=C/c1cc(Nc2ccc(OCc3cccc(Cl)c3)cc2)c2ccccc2n1)c1ccc(F)cc1 [Compound 5d, (E)-3-{4-{{4-[(3-Chlorobenzyl)oxy]phenyl}amino}quinolin-2-yl}-1-(4-fluorophenyl) prop-2-en-1-one]	> 20000 nM
172 to 173 °C			O=C(/C=C/c1cc(Nc2ccc(OCc3cccc(Cl)c3)cc2)c2ccccc2n1)c1ccc(F)cc1 (as salt: salt) [Compound 5d, (E)-3-{4-{{4-[(3-Chlorobenzyl)oxy]phenyl}amino}quinolin-2-yl}-1-(4-fluorophenyl) prop-2-en-1-one]	
	1820 ± 280 nM	1270 ± 60 nM	O=C(/C=C/c1cc(Nc2ccc(OCc3cccc(F)c3)cc2)c2ccccc2n1)c1ccc(F)cc1 [Compound 5e, (E)-3-{4-{{4-[(3-Fluorobenzyl)oxy]phenyl}amino}quinolin-2-yl}-1-(4-fluorophenyl)prop-2-en-1-one]	> 20000 nM
	1650 ± 770 nM	1240 ± 90 nM	O=C(/C=C/c1cc(Nc2ccc(OCc3ccccc3)cc2)c2ccccc2n1)c1ccc(F)cc1 [Compound 5a, (E)-3-{4-{[4-(Benzyloxy)phenyl]amino}quinolin-2-yl}-1-(4-fluorophenyl)prop-2-en-1-one]	> 20000 nM
165 to 166 °C			COc1cccc(COc2ccc(Nc3cc(/C=C/C(=O)c4ccc(F)cc4)nc4ccccc34)cc2)c1 (as salt: salt) [Compound 5f, (E)-1-(4-Fluorophenyl)-3-{4-{{4-[(3-methoxybenzyl)oxy]phenyl}amino}quinolin-2-yl}prop-2-en-1-one]	
175 to 176 °C			COc1ccc(C(=O)/C=C/c2cc(Nc3ccc(OCc4ccccc4F)cc3)c3ccccc3n2)cc1 (as salt: salt) [Compound 4c]	
142 to 143 °C			COc1ccc(C(=O)/C=C/c2cc(Nc3ccc(OCc4ccc(Cl)cc4)cc3)c3ccccc3n2)cc1 (as salt: salt) [Compound 4g, (E )-3-{4-{{4-[(4-Chlorobenzyl)oxy]phenyl}amino}quinolin-2-yl}-1-(4-methoxy - phenyl)prop-2-en-1-one]	
160 to 161 °C			COc1ccc(C(=O)/C=C/c2cc(Nc3ccc(OCc4ccccc4Cl)cc3)c3ccccc3n2)cc1 (as salt: salt) [Compound 4b, (E)-3-{4-{{4-[(2-Chlorobenzyl)oxy]phenyl}amino}quinolin-2-yl}-1-(4-methoxy - phenyl) prop-2-en-1-one]	
213 to 214 °C			O=C(/C=C/c1cc(Nc2ccc(OCc3cccc(F)c3)cc2)c2ccccc2n1)c1ccc(F)cc1 (as salt: salt) [Compound 5e, (E)-3-{4-{{4-[(3-Fluorobenzyl)oxy]phenyl}amino}quinolin-2-yl}-1-(4-fluorophenyl)prop-2-en-1-one]	
171 to 172 °C			COc1ccc(C(=O)/C=C/c2cc(Nc3ccc(OCc4cccc(F)c4)cc3)c3ccccc3n2)cc1 (as salt: salt) [Compound 4e, (E)-3-{4-{{4-[(3-Fluorobenzyl)oxy]phenyl}amino}quinolin-2-yl}-1-(4-methoxy-phenyl) prop-2-en-1-one]	
	1530 ± 210 nM	1240 ± 300 nM	O=C(/C=C/c1cc(Nc2ccc(OCc3ccccc3Cl)cc2)c2ccccc2n1)c1ccc(F)cc1 [Compound 5b, (E)-3-{4-{{4-[(2-Chlorobenzyl)oxy]phenyl}amino}quinolin-2-yl}-1-(4-fluorophenyl) prop-2-en-1-one]	> 20000 nM
	180 ± 60 nM	690 ± 40 nM	COc1ccc(C(=O)/C=C/c2cc(Nc3ccc(OCc4cccc(Cl)c4)cc3)c3ccccc3n2)cc1 [Compound 4d, (E)-3-{4-{{4-[(3-Chlorobenzyl)oxy]phenyl}amino}quinolin-2-yl}-1-(4-methoxy-phenyl) prop-2-en-1-one]	> 20000 nM
	540 ± 110 nM	1450 ± 280 nM	COc1ccc(C(=O)/C=C/c2cc(Nc3ccc(OCc4cccc(F)c4)cc3)c3ccccc3n2)cc1 [Compound 4e, (E)-3-{4-{{4-[(3-Fluorobenzyl)oxy]phenyl}amino}quinolin-2-yl}-1-(4-methoxy-phenyl) prop-2-en-1-one]	> 20000 nM
	1710 ± 350 nM	1310 ± 560 nM	COc1ccc(C(=O)/C=C/c2cc(Nc3ccc(OCc4ccc(Cl)cc4)cc3)c3ccccc3n2)cc1 [Compound 4g, (E )-3-{4-{{4-[(4-Chlorobenzyl)oxy]phenyl}amino}quinolin-2-yl}-1-(4-methoxy - phenyl)prop-2-en-1-one]	> 20000 nM
	1680 ± 210 nM	1290 ± 280 nM	O=C(/C=C/c1cc(Nc2ccc(OCc3ccc(F)cc3)cc2)c2ccccc2n1)c1ccc(F)cc1 [Compound 5h, (E)-3-{4-{{4-[(4-Fluorobenzyl)oxy]phenyl}amino}quinolin-2-yl}-1-(4-fluorophenyl)prop-2-en-1-one]	> 20000 nM
254 to 255 °C			O=C(/C=C/c1cc(Nc2ccc(OCc3ccc(F)cc3)cc2)c2ccccc2n1)c1ccc(F)cc1 (as salt: salt) [Compound 5h, (E)-3-{4-{{4-[(4-Fluorobenzyl)oxy]phenyl}amino}quinolin-2-yl}-1-(4-fluorophenyl)prop-2-en-1-one]	
	1690 ± 210 nM	1370 ± 280 nM	COc1ccc(C(=O)/C=C/c2cc(Nc3ccc(OCc4ccc(F)cc4)cc3)c3ccccc3n2)cc1 [Compound 4h, (E)-3-{4-{ {4-[ (4-Fluorobenzyl)oxy]phenyl}amino}quinolin-2-yl}-1-(4-methoxy - phenyl)prop-2-en-1-one]	> 20000 nM
207 to 208 °C			O=C(/C=C/c1cc(Nc2ccc(OCc3ccccc3F)cc2)c2ccccc2n1)c1ccc(F)cc1 (as salt: salt) [Compound 5c, (E)-3-{4-{{4-[(2-Fluorobenzyl)oxy]phenyl}amino}quinolin-2-yl}-1-(4-fluorophenyl) prop-2-en-1-one]	
	1420 ± 700 nM	1250 ± 70 nM	O=C(/C=C/c1cc(Nc2ccc(OCc3ccccc3F)cc2)c2ccccc2n1)c1ccc(F)cc1 [Compound 5c, (E)-3-{4-{{4-[(2-Fluorobenzyl)oxy]phenyl}amino}quinolin-2-yl}-1-(4-fluorophenyl) prop-2-en-1-one]	> 20000 nM
	1500 ± 770 nM	1300 ± 140 nM	O=C(/C=C/c1cc(Nc2ccc(OCc3ccc(Cl)cc3)cc2)c2ccccc2n1)c1ccc(F)cc1 [Compound 5g, (E)-3-{4-{{4-[(4-Chlorobenzyl)oxy]phenyl}amino}quinolin-2-yl}-1-(4-fluorophenyl)prop-2-en-1-one]	> 20000 nM
200 to 201 °C			COc1ccc(C(=O)/C=C/c2cc(Nc3ccc(OCc4ccccc4)cc3)c3ccccc3n2)cc1 (as salt: salt) [Compound 4a, (E)-3-{4-{[4-(Benzyloxy)phenyl]amino}quinolin-2-yl}-1-(4-methoxyphenyl)prop-2-en-1-one]	
	2030 ± 140 nM	1340 ± 350 nM	COc1cccc(COc2ccc(Nc3cc(/C=C/C(=O)c4ccc(F)cc4)nc4ccccc34)cc2)c1 [Compound 5f, (E)-1-(4-Fluorophenyl)-3-{4-{{4-[(3-methoxybenzyl)oxy]phenyl}amino}quinolin-2-yl}prop-2-en-1-one]	> 20000 nM
	1940 ± 520 nM	1410 ± 40 nM	COc1ccc(C(=O)/C=C/c2cc(Nc3ccc(OCc4cccc(OC)c4)cc3)c3ccccc3n2)cc1 [Compound 4f, (E)-3-{4-{{4-[(3-Methoxybenzyl)oxy]phenyl}amino}quinolin-2-yl}-1-(4-methoxy - phenyl)prop-2-en-1-one]	> 20000 nM
	1040 ± 40 nM	810 ± 60 nM	COc1ccc(C(=O)/C=C/c2cc(Nc3ccc(OCc4ccccc4F)cc3)c3ccccc3n2)cc1 [Compound 4c]	> 20000 nM

Reference: publication PMC10094048, “Synthesis and Anticancer Evaluation of 4-Anilinoquinolinylchalcone Derivatives” (International Journal of Molecular Sciences, 2023)
